The record followed here is patent US12643881B2, “Bicyclic amine CDK12 inhibitors” (Incyte Corporation, priority 2021, dated 2026).

As a reminder, the IC50 is the concentration that inhibits the measured activity by half.

The target of the experiment is T1, CDK12 complexed with Cyclin K (Homo sapiens, UniProt Q9NYV4).
T1 construct: GST (N)
T1 sequence (Q9NYV4 whole entry): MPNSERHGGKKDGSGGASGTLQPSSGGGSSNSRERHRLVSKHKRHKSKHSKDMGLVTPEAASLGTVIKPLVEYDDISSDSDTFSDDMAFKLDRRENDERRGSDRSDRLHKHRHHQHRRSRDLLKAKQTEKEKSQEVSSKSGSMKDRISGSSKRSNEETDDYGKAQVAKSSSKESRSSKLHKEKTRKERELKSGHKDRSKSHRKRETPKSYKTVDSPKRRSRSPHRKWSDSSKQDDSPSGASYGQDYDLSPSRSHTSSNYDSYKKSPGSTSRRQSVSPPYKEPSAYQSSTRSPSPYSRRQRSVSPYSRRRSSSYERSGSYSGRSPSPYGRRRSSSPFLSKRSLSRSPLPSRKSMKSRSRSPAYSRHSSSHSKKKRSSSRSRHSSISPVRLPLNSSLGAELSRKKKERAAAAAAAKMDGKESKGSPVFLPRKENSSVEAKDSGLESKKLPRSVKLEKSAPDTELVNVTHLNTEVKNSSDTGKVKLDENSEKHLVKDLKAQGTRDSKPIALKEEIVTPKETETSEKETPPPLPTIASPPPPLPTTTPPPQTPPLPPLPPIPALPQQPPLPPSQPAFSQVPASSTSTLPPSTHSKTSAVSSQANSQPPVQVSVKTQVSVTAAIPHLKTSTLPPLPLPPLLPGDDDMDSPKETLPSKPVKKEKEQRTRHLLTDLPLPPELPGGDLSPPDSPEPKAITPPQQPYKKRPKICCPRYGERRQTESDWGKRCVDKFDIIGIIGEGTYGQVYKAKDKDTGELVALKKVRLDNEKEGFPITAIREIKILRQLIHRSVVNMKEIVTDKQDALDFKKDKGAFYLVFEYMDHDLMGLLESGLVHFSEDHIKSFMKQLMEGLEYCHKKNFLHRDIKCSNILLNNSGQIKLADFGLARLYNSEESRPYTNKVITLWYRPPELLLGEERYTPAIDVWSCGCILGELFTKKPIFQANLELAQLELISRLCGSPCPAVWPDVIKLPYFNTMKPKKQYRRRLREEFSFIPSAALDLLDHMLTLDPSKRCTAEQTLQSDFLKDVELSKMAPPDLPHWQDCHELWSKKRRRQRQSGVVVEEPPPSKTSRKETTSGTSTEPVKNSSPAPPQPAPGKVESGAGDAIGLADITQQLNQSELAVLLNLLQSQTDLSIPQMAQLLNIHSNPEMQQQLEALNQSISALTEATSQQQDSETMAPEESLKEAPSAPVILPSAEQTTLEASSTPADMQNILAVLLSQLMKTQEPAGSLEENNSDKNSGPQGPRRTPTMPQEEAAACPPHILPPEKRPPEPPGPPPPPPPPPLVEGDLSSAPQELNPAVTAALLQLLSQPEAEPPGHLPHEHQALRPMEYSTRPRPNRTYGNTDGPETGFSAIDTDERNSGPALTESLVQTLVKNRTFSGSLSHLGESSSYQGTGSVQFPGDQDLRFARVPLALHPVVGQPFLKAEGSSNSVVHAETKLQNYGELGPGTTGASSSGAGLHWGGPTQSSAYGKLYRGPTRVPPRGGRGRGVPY
T1 sequence (O75909 whole entry partner): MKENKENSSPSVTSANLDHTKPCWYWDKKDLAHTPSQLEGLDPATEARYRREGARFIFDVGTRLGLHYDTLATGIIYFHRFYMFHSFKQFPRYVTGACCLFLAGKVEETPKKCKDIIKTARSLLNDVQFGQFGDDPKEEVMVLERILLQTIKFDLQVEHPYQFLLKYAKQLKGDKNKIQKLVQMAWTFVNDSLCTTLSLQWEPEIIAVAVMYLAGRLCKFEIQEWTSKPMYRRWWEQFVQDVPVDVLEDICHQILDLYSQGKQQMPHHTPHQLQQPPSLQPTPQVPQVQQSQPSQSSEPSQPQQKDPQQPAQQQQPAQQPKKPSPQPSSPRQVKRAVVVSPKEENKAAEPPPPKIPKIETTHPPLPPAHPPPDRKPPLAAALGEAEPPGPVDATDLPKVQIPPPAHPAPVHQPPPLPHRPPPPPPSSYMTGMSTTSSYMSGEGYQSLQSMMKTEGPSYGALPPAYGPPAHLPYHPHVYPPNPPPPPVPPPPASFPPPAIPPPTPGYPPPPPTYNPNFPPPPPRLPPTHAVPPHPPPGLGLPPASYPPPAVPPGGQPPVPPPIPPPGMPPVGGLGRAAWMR
In words: Alternative CDK Enzymatic Assays (HTRF, pre-incubation with compounds and 1 mM ATP), Example A2. Type of experiment: biochemical. The conditions noted are these: enzyme pre-incubated with compounds and 1 mM ATP for 60 minutes; reaction 120 minutes at 25° C. The text has this: Example A2. Alternative CDK Enzymatic Assays
The following activity of the CDK enzymes in complex with their respective cyclins we assayed: CDK1 complexed with Cyclin B1; CDK2 complexed with Cyclin E1; CDK4 complexed with Cyclin D1; CDK6 complexed with Cyclin D1; CDK6 complexed with Cyclin D3; CDK9 complexed with Cyclin T1; CDK7 complexed with Cyclin H/MAT1; CDK2 complexed with Cyclin A2; CDK5 complexed with p35; CDK12 complexed with Cyclin K; CDK13 complexed with Cyclin K. These in vitro enzyme activity are assayed using homogeneous time-resolved energy transfer (HTRF), which measures phosphorylation of a peptide substrate. The LANCER Ultra kinase assay (PerkinElmer) uses a ULight™-labeled EIF4E-binding protein 1 (THR37/46) peptide (DYSTTPGGTLFSTTPGTRI (SEQ ID NO: 1)) substrate and a Europium-labeled anti-phospho-4E-BP1 antibody (CDK2, CDK1, CDK4, CDK6, CDK9, CDK12, CDK13) or ULight™-labeled Myelin Basic Protein peptide (VTPRTPPP (SEQ ID NO: 2)) substrate and a Europium-labeled anti-phospho-MBP antibody (CDK7). Each CDK enzyme activity assays utilized human CDK co-expressed as N-terminal GST-tagged protein with its full length cyclin partner using a baculovirus expression system.
Enzyme was pre-incubated with compounds and 1 mM ATP for 60 minutes (CDK 1, 2, 4, 6, 9, 7, 12, 13) prior to the addition of ATP and Ulight-peptide (1 mM and 50 nM final, respectively), in assay buffer containing 50 mM HEPES pH 7.5, 1 mM EGTA, 10 mM MgCl2, 2 mM DTT, 0.05 mg/mL BSA, and 0.01% Tween 20. The reaction was then incubated for 120 minutes at 25° C. incubator. The reactions were stopped by the addition of EDTA and Europium labeled antibody, for a final concentration of 15 mM and 0.5-1.5 nM, respectively. HTRF signals were read after 15-120 minutes. A ratio of fluorescence transferred to the labeled substrate (665 nm) relative to fluorescence of the Europium donor (620 nm) represents the extent of phosphorylation. Ratios for treated wells were normalized to DMSO only (100% activity) and no enzyme (0% activity) controls. Normalized data was analyzed using a three or four parameter dose response curve to determine IC50 for each compound and are shown in Table B. Control reference inhibitors were included on each plate.
(Time-resolved FRET reads energy transfer from a long-lived donor to a nearby acceptor.)
In the case of `C=CC(=O)Nc1cc2nc(N3C[C@H](F)C[C@@H](Nc4ncc(C#N)c(CC)n4)C3)n(C)c2cc1C` [Example 161, N-(2-((3R,5R)-3-((5-Cyano-4-ethylpyrimidin-2-yl)amino)-5-fluoropiperidin-1-yl)-1,6-dimethyl-1H-benzo[d]imidazol-5-yl)acrylamide], the IC50 was below 50 nM.

As for `C=CC(=O)Nc1cc2nc(N3C[C@H](F)C[C@@H](Nc4ncc(C(F)(F)F)cn4)C3)n(C)c2cc1N1CCOCC1` [Example 139, N-(2-((3R,5R)-3-Fluoro-5-((5-(trifluoromethyl)pyrimidin-2-yl)amino)piperidin-1-yl)-1-methyl-6-morpholino-1H-benzo[d]imidazol-5-yl)acrylamide], the IC50 fell in the range of 50 to 500 nM. `C=CC(=O)Nc1ccc2c(c1)nc(N1CCC[C@@H](Nc3ncc(C#N)c(N4CC[C@@H](N(C)C)C4)n3)C1)n2C` [Example 142, N-(2-((R)-3-((5-cyano-4-((R)-3-(dimethylamino)pyrrolidin-1-yl)pyrimidin-2-yl)amino)piperidin-1-yl)-1-methyl-1H-benzo[d]imidazol-5-yl)acrylamide]: the IC50 was below 50 nM. Regarding `C=CC(=O)Nc1ccc2c(c1)nc(N1CCC[C@@H](Nc3ncc(C#N)s3)C1)n2C` [Example 129, (R)—N-(2-(3-((5-Cyanothiazol-2-yl)amino)piperidin-1-yl)-1-methyl-1H-benzo[d]imidazol-5-yl)acrylamide], the IC50 is below 50 nM. The same measure for `C=CC(=O)Nc1cc2nc(N3C[C@H](F)C[C@@H](Nc4ncc(C#N)s4)C3)n(C)c2cc1C` [Example 162, N-(2-((3R,5R)-3-((5-Cyanothiazol-2-yl)amino)-5-fluoropiperidin-1-yl)-1,6-dimethyl-1H-benzo[d]imidazol-5-yl)acrylamide]: 50 to 500 nM; for `C=CC(=O)Nc1cc2nc(N3C[C@H](F)C[C@@H](Nc4ncc(C(F)(F)F)cn4)C3)n(C)c2cc1C` [Example 100, N-(2-((3R,5R)-3-fluoro-5-((5-(trifluoromethyl)pyrimidin-2-yl)amino)piperidin-1-yl)-1,6-dimethyl-1H-benzo[d]imidazol-5-yl)acrylamide]: below 50 nM; for `C=CC(=O)Nc1cc2nc(N3CC[C@H](O)[C@@H](Nc4ncc(C(F)(F)F)cn4)C3)n(C)c2cc1C` [Example 149, N-(2-((3S,4S)-4-Hydroxy-3-((5-(trifluoromethyl)pyrimidin-2-yl)amino)piperidin-1-yl)-1,6-dimethyl-1H-benzo[d]imidazol-5-yl)acrylamide]: above 500 nM. As for `C=CC(=O)Nc1ccc2c(c1)nc(N1CCC(F)(F)[C@@H](Nc3ncc(C#N)cn3)C1)n2C` [Example 127, (S)—N-(2-(3-((5-Cyanopyrimidin-2-yl)amino)-4,4-difluoropiperidin-1-yl)-1-methyl-1H-benzo[d]imidazol-5-yl)acrylamide], the IC50 is below 50 nM. The same measure for `C=CC(=O)Nc1cc2nc(N3C[C@H](F)C[C@@H](Nc4ncc(C(F)(F)F)cn4)C3)n(C)c2cc1N1CCCC1` [Example 136, N-(2-((3R,5R)-3-Fluoro-5-((5-(trifluoromethyl)pyrimidin-2-yl)amino)piperidin-1-yl)-1-methyl-6-(pyrrolidin-1-yl)-1H-benzo[d]imidazol-5-yl)acrylamide]: below 50 nM; for `C=CC(=O)Nc1c(C)cc2c(nc(N3C[C@H](F)C[C@@H](Nc4ncc(C(F)(F)F)cn4)C3)n2C)c1C` [Example 144, N-(2-((3R,5R)-3-Fluoro-5-((5-(trifluoromethyl)pyrimidin-2-yl)amino)piperidin-1-yl)-1,4,6-trimethyl-1H-benzo[d]imidazol-5-yl)acrylamide]: above 500 nM; for `C=CC(=O)Nc1cc2nc(N3C[C@H](F)C[C@@H](Nc4ncc(C(F)(F)F)cn4)C3)n(C)c2cc1C#N` [Example 140, N-(6-Cyano-2-((3R,5R)-3-fluoro-5-((5-(trifluoromethyl)pyrimidin-2-yl)amino)piperidin-1-yl)-1-methyl-1H-benzo[d]imidazol-5-yl)acrylamide]: below 50 nM. The same measure for `C=CC(=O)Nc1cc2nc(N3C[C@H](F)C[C@@H](Nc4ncc(C#N)cn4)C3)n(C)c2cc1C` [Example 96, N-(2-((3R,5R)-3-((5-cyanopyrimidin-2-yl)amino)-5-fluoropiperidin-1-yl)-1,6-dimethyl-1H-benzo[d]imidazol-5-yl)acrylamide]: 50 to 500 nM. Regarding `C=CC(=O)Nc1cc2nc(N3C[C@H](F)C[C@@H](Nc4ncc(C(F)(F)F)cn4)C3)n(C)c2cc1C(=O)N1CCCC1` [Example 138, N-(2-((3R,5R)-3-Fluoro-5-((5-(trifluoromethyl)pyrimidin-2-yl)amino)piperidin-1-yl)-1-methyl-6-(pyrrolidine-1-carbonyl)-1H-benzo[d]imidazol-5-yl)acrylamide], the IC50 was 50 to 500 nM.

Turning to `C=CC(=O)Nc1ccc2c(c1)nc(N1CC[C@H](F)[C@@H](Nc3ncc(C#N)cn3)C1)n2C` [Example 126, N-(2-((3S,4S)-3-((5-Cyanopyrimidin-2-yl)amino)-4-fluoropiperidin-1-yl)-1-methyl-1H-benzo[d]imidazol-5-yl)acrylamide], the IC50 is below 50 nM. Consider `C=CC(=O)Nc1ccc2c(c1)nc(N1CCC[C@@H](Nc3ncc(C#N)cn3)C1)n2C` [Example 143, (R)—N-(2-(3-((5-Cyanopyrimidin-2-yl)amino)piperidin-1-yl)-1-methyl-1H-benzo[d]imidazol-5-yl)acrylamide], for which the IC50 was below 50 nM.

For the compound `C=CC(=O)Nc1c(C(C)C)cc2c(nc(N3CCC[C@@H](Nc4ncc(C(F)(F)F)cn4)C3)n2C)c1C` [Example 155, (R)—N-(6-Isopropyl-1,4-dimethyl-2-(3-((5-(trifluoromethyl)pyrimidin-2-yl)amino)piperidin-1-yl)-1H-benzo[d]imidazol-5-yl)acrylamide], the IC50 was below 50 nM. Regarding `C=CC(=O)Nc1c(C)cc2c(nc(N3C[C@H](F)C[C@@H](Nc4ncc(C(F)(F)F)cn4)C3)n2C)c1Br` [Example 146, N-(4-Bromo-2-((3R,5R)-3-fluoro-5-((5-(trifluoromethyl)pyrimidin-2-yl)amino)piperidin-1-yl)-1,6-dimethyl-1H-benzo[d]imidazol-5-yl)acrylamide], the IC50 is 50 to 500 nM. Turning to `C=CC(=O)Nc1ccc2c(c1)nc(N1CCC[C@@H](Nc3ncc(C(F)(F)F)c(N4CCN(C)CC4)n3)C1)n2C` [Example 152, (R)—N-(1-Methyl-2-(3-((4-(4-methylpiperazin-1-yl)-5-(trifluoromethyl)pyrimidin-2-yl)amino)piperidin-1-yl)-1H-benzo[d]imidazol-5-yl)acrylamide], the IC50 is below 50 nM. Turning to `Cc1cc2c(cc1NC(=O)/C=C/CN(C)C)nc(N1C[C@H](F)C[C@@H](Nc3ncc(C(F)(F)F)cn3)C1)n2C` [Example 120, (E)-4-(Dimethylamino)-N-(2-((3R,5R)-3-fluoro-5-((5-(trifluoromethyl)pyrimidin-2-yl)amino)piperidin-1-yl)-1,6-dimethyl-1H-benzo[d]imidazol-5-yl)but-2-enamide], the IC50 was above 500 nM. As for `[2H]C([2H])([2H])c1cc2c(cc1NC(=O)C=C)nc(N1C[C@H](F)C[C@@H](Nc3ncc(C(F)(F)F)cn3)C1)n2C` [Example 135, N-(2-((3R,5R)-3-Fluoro-5-((5-(trifluoromethyl)pyrimidin-2-yl)amino)piperidin-1-yl)-1-methyl-6-(methyl-d3)-1H-benzo[d]imidazol-5-yl)acrylamide], the IC50 is below 50 nM. As for `C=CC(=O)Nc1cc2nc(N3C[C@H](F)C[C@@H](Nc4ccc(C(F)(F)F)cn4)C3)n(C)c2cc1C` [Example 159], the IC50 is 50 to 500 nM. For the compound `COC/C=C/C(=O)Nc1cc2nc(N3C[C@H](F)C[C@@H](Nc4ncc(C(F)(F)F)cn4)C3)n(C)c2cc1C` [Example 121, (E)-N-(2-((3R,5R)-3-Fluoro-5-((5-(trifluoromethyl)pyrimidin-2-yl)amino)piperidin-1-yl)-1,6-dimethyl-1H-benzo[d]imidazol-5-yl)-4-methoxybut-2-enamide], the IC50 lay in the range of 50 to 500 nM. Turning to `C=CC(=O)Nc1cc2nc(N3C[C@H](F)C[C@@H](Nc4ncc(C(F)(F)F)cn4)C3)n(C)c2cc1COC` [Example 133, N-(2-((3R,5R)-3-Fluoro-5-((5-(trifluoromethyl)pyrimidin-2-yl)amino)piperidin-1-yl)-6-(methoxymethyl)-1-methyl-1H-benzo[d]imidazol-5-yl)acrylamide], the IC50 was below 50 nM.

On to `C=CC(=O)Nc1ccc2c(c1)nc(N1C[C@H](Nc3ncc(C(F)(F)F)cn3)CC(F)(F)C1)n2C` [Example 124, (R)—N-(2-(3,3-Difluoro-5-((5-(trifluoromethyl)pyrimidin-2-yl)amino)piperidin-1-yl)-1-methyl-1H-benzo[d]imidazol-5-yl)acrylamide], for which the IC50 is below 50 nM.
